Assay results from ChEMBL document CHEMBL4613223, “Structure-based design of guanosine analogue inhibitors targeting GTP cyclohydrolase IB towards a new class of antibiotics” (Bioorg Med Chem Lett, 2020).

How the values were obtained:
[1] = Inhibition of Thermus thermophilus HB8 GCYH1A expressed in Escherichia coli BL21 (DE3) using GTP as substrate incubated for 60 to 180 mins by spectrofluorimetric analysis
[2] = Inhibition of recombinant full-length Neisseria gonorrhoeae N-terminal His6-tagged GCYH1B expressed in Escherichia coli BL21 (DE3) using GTP as substrate incubated for 50 to 60 mins by fluorescence based assay
[3] = Inhibition of full-length human GCYH1A expressed in Escherichia coli using GTP as substrate incubated for 30 mins by fluorescence based assay
[4] = Inhibition of Neisseria gonorrhoeae GCYH1B

Row | SMILES | Ki [1] [µM] | Ki [2] [µM] | IC50 [3] [µM] | IC50 [4] [µM]
1 | Nc1nc2c([nH]c(=O)n2[C@@H]2O[C@H](CO[P@@](=O)(O)O[P@@](=O)(O)OP(=O)(O)O)[C@@H](O)[C@H]2O)c(=O)[nH]1 | 0.0054 | 0.15 |  | 
2 | Nc1nc(OC[C@@H](O)CO)c2[nH]c(=O)n([C@@H]3O[C@H](CO)[C@@H](O)[C@H]3O)c2n1 |  |  | 372 | 164
3 | Nc1nc(OC[C@H](O)CO)c2[nH]c(=O)n([C@@H]3O[C@H](CO)[C@@H](O)[C@H]3O)c2n1 |  |  | 409 | 134
4 | COc1nc2c(=O)[nH]c(N)nc2n1[C@@H]1O[C@H](CO)[C@@H](O)[C@H]1O |  |  |  | 372
5 | Nc1nc(OCCO)c2[nH]c(=O)n([C@@H]3O[C@H](CO)[C@@H](O)[C@H]3O)c2n1 |  |  | 221 | 413
